From BindingDB's records for doi:10.7270/Q2S46QSD (D3R/Abbott, 2015)

What follows are compounds tested against Mitogen-activated protein kinase 1 (Homo sapiens, UniProt P28482) (assay: Photometric_Method2).
Chain of Mitogen-activated protein kinase 1 (P28482 whole entry): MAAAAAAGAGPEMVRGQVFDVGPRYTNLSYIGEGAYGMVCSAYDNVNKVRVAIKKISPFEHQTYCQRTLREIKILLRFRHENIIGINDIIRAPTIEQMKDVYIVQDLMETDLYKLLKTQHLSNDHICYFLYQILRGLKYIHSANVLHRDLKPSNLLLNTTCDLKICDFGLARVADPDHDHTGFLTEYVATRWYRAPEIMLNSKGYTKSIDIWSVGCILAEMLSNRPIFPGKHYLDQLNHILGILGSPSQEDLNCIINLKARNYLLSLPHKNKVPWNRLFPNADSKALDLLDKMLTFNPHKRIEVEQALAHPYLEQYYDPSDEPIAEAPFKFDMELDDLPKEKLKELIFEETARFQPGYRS

SMILES	Ki
Cc1cnc(Nc2ccc(Cl)cc2Cl)nc1-c1c[nH]c(C(=O)N[C@H](CO)c2ccccc2)c1 [erk000657]	7.9 nM
Cc1ccc(Nc2ncc(C)c(-c3c[nH]c(C(=O)N[C@H](CO)c4cccc(Cl)c4)c3)n2)cc1 [erk000585]	7.1 nM
Cc1cnc(N[C@H]2CCC[C@H]2O)nc1-c1c[nH]c(C(=O)N[C@H](CO)c2cccc(Cl)c2)c1 [erk000612]	7.1 nM
Cc1cnc(Nc2cccc3c2OC(F)(F)O3)nc1-c1c[nH]c(C(=O)N[C@H](CO)c2ccccc2)c1 [erk000591]	7.9 nM
Cc1cnc(NN2CCCC2)nc1-c1c[nH]c(C(=O)N[C@H](CO)c2cccc(Cl)c2)c1 [erk000624]	7.1 nM
Cc1cnc(NN(C)C)nc1-c1c[nH]c(C(=O)N[C@H](CO)c2ccccc2)c1 [erk000505]	7.1 nM
Cc1cccc([C@@H](CO)NC(=O)c2cc(-c3nc(Nc4cccc(F)c4C)ncc3C)c[nH]2)c1 [erk000601]	7.9 nM
CCOC(=O)N1CCC(Nc2ncc(Cl)c(-c3c[nH]c(C(=O)N[C@H](CO)c4cccc(Cl)c4)c3)n2)CC1 [erk000703]	7.1 nM
Cc1cnc(N[C@@H](CO)CC(F)(F)F)nc1-c1c[nH]c(C(=O)N[C@H](CO)c2cccc(Cl)c2)c1 [erk000675]	7.9 nM
Cc1cnc(NCCc2ccccc2)nc1-c1c[nH]c(C(=O)N[C@H](CO)c2ccccc2)c1 [erk000578]	7.1 nM
Cc1cnc(N[C@H]2CCCC[C@H]2O)nc1-c1c[nH]c(C(=O)N[C@H](CO)c2ccccc2)c1 [erk000465]	7.1 nM
Cc1cnc(NC2CCOCC2)nc1-c1c[nH]c(C(=O)N[C@H](CO)c2cccc(Cl)c2)c1 [erk000584]	7.9 nM
